The values below come from publication PMC12183826, “Structure-based design and evaluation of tyrosinase inhibitors targeting both human and mushroom isozymes” (RSC Medicinal Chemistry, 2025).

Data set [1] concerns the target T1, human tyrosinase (hTYR) (Homo sapiens, UniProt P14679).
T1 construct: The intramelanosomal domain of hTYR was expressed and purified; made in house
T1 sequence (P14679 19-476 limits assumed): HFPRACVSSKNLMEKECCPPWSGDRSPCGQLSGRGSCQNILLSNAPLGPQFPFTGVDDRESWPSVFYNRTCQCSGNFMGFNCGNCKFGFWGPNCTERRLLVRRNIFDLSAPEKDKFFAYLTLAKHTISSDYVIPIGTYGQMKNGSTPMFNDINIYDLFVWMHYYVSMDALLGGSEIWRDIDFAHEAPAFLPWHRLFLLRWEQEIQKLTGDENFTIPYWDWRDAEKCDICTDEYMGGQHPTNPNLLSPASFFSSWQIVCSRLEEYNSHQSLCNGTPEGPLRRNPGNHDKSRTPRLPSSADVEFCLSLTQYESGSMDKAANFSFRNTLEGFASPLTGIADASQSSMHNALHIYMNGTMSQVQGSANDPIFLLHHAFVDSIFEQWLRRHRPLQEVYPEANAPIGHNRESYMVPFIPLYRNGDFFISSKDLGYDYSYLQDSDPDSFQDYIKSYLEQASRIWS
The data set is described as follows: hTYR inhibition assay. The data set is classed as biochemical. The text has this: (§1) No. T3824). Kojic acid was employed as a positive standard. The intramelanosomal domain of hTYR was expressed and purified as previously reported in the literature.[46] The reference compound Thiamidol was purchased from BLDpharm (Shanghai, China).

The nature of data set [2]: ABTS radical scavenging assay. The settings on record: read-out: Antioxidant activity EC50 (ABTS). The method, then:
Therefore, we conducted a preliminary assessment of the antioxidant activity of all synthesized target compounds by evaluating their ABTS radical scavenging capacity. The ABTS assay is widely recognized as one of the most reliable methods for measuring antioxidants' ability to neutralize the stable ABTS˙^+ radical cation.
The overall free radical-scavenging capacity of the compounds was evaluated using the ABTS [2,20-azinobis-(3-ethylbenzothiazoline-6-sulfonic acid)] assay according to previously described methods.[45] The method relies on the capacity of antioxidants to scavenge the ABTS˙^+ radical. To generate ABTS˙^+, a 7 mM ABTS solution was mixed with 2.45 mM potassium persulfate in water, and the mixture was incubated in the dark at room temperature for 24 h. Subsequently, 10 μL of sample at varying concentrations was added to 990 μL of the diluted ABTS˙^+ solution. After 1 min of reaction at room temperature, the absorbance was recorded at 734 nm. The reference antioxidant used was 6-hydroxy-2,5,7,8-tetramethylchromane-2-carboxylic acid (Trolox). Antioxidant activity was quantified as EC50, which represents the concentration of compound needed to reduce the initial absorbance by 50%.

In data set [3] the target is Agaricus bisporus tyrosinase (AbTYR). The data set is described as follows: AbTYR inhibition assay. The class given is biochemical.
Excerpt: as §1

Data set [4] deals with HaCaT cells. The data set is described as follows: Intracellular ROS levels (DCFH-DA), H2O2-induced. The class given is cell-based, human. The settings on record: 5–50 μM, 2 mM H2O2. On the procedure:
To further confirm their antioxidant capacity, we carried out an antioxidant assay in the skin keratinocyte cell line HaCaT. The levels of ROS were measured before and after exposure to H2O2-induced oxidative stress and after treatment with compounds 2 and 3 at various concentrations (5–50 μM).
Cellular ROS levels were measured using the 2′,7′-dichlorofluorescein diacetate (DCFH-DA) method.[48] HaCat cells were exposed to different concentrations of the test compounds, and after 24 h, cells were incubated with DCFH-DA (10 μM) at 37 °C for 30 min and then treated with 2 mM H2O2. The fluorescence intensity of DCF was immediately measured with a fluorescence plate reader (VANTAstar_BMGLABTECH GmbH, Offenburg, Germany).

The nature of data set [5]: Relative lipophilicity by RP-TLC. The class given is physicochemical. The settings on record: RP-TLC C18, acetone:water 2:1. On the procedure:
Based on the consideration that the lipophilicity of an active molecule exerts a relevant role in skin penetration as well as in the process of crossing the cell membrane, we chose to experimentally estimate the relative lipophilicity of the synthesized compounds 1–5. We employed reverse-phase thin layer chromatography (RP-TLC); the retardation coefficients (RFs) were measured from the chromatograms, thus generating the RM values as an estimation of the relative lipophilicity among the homogenous series of the studied compounds 1–5 in comparison with MehT-3. The Experimental procedure (4.3 Lipophilicity) contains a detailed description of the applied methods.
Experimental relative lipophilicity was determined by employing reversed phase TLC on 20 cm × 20 cm plates coated with C18 silica. The eluant was prepared by mixing acetone and water (2 : 1 (v/v)). The studied compounds and reference substances were dissolved in MeOH to obtain the working solution with a concentration of 2.0 mg mL^−1. Then, we activated the plates by heating at 105 °C for 1 h. From each working solution, a volume of 0.2 μL was spotted to the plates. The measurements were repeated three times with distinct disposition of the compounds on the plate, so that RF values represented the mean values obtained in triplicate. The chromatograms were developed at a distance of 10 cm from the origin in ascending TLC chambers at room temperature. Then, the spots of the substances were visualized by means of a UV lamp at 254 nm. Based on the retardation coefficients (RF) we calculated the relative lipophilicity RM values according to the formula RM = log[(1/RF) − 1];[44] higher RM values predict a higher lipophilicity.

Data set [6] can be described thus: MTT cell viability. The data set is classed as cell-based. The following applies: human, HaCaT keratinocyte cells. On the procedure:
Based on the inhibitory effects on hTYR and antioxidant properties on the ABTS assay, we focused our attention on compounds 2 and 3, which were further characterized as skin protective agents. In more detail, we evaluated their ability to influence the viability of human skin keratinocyte cell line HaCaT at distinct concentrations ranging from 5 to 50 μM (Fig. 6). […] Cell viability remained above 87% in compound 2 for all concentrations tested.
The 3-(4,5-dimethylthiazol-2-yl)-2,5-diphenyltetrazolium bromide (MTT) technique on human skin keratinocyte cell line (HaCaT; CLS-Cell Lines Service, Eppelheim, Germany) was employed to assess cell viability as reported by Pintus et al.[47] The cells were exposed to the compounds at concentrations ranging from […] for a duration of 24 h. Afterward, MTT reagent was added to each well, followed by incubation at 37 °C for 3 h. Following incubation, the MTT solution was removed from the culture plate, and 100 μL of DMSO solvent was added to dissolve the water-insoluble formazan crystals formed in the cells. The absorbance was then measured at 570 nm using a microplate reader (VANTAstar_BMG LABTECH GmbH, Offenburg, Germany).

Data set [7] has as its system Agaricus bisporus tyrosinase (AbTYR). On the set-up: method as in PMID 37657271, PMID 36093940. The settings on record: cited from earlier work.
The target in data set [8] is T1, human tyrosinase (hTYR). The following applies: cited from earlier work.
Details of data set [9]: method as in PMID 36675192. The following applies: positive control; read-out: Antioxidant activity EC50 (ABTS); cited from earlier work.

Read-outs that look alike come from different tables or passages of the source.

Broadly, the IC50 is the concentration that gives 50% inhibition. The term EC50 denotes the concentration giving half of the maximal effect. Consider `O=C(O)c1ccccc1C(=O)N1CCN(c2ccc(O)cc2)CC1` [Compound 1, 2-[4-(4-hydroxyphenyl)piperazine-1-carbonyl]benzoic acid], for which the IC50 in [1] turned out to be 15.4 ± 1.2 µM; in data set [3] it was 40.7 ± 3.19 µM. In addition, the EC50 in data set [2] was 17.1 ± 0.7 µM.

In general, viability refers to a read-out of living cells in per cent, often relative to untreated cells. A low value points to more harm to the cells. Take `O=C(c1ccc(=O)[nH]c1)N1CCN(c2ccc(O)cc2)CC1` [Compound 2, 5-[4-(4-hydroxyphenyl)piperazine-1-carbonyl]pyridin-2(1H)-one]: the “H2O2-induced ROS production” value in data set [4] is given as “decreased the production of ROS induced by hydrogen peroxide in a dose-dependent manner”. For the same compound, the “RM (relative lipophilicity)” value in [5] is recorded as −0.60. The IC50 in data set [1] amounted to 7.8 ± 0.8 µM; in [3], 13.2 ± 2.24 µM. This compound also showed a viability at 24 h in data set [6] (all concentrations tested (5 to 50 μM)) greater than 87%. Further, the 50% effective concentration (EC50) in data set [2] came out at 9.5 ± 0.2 µM.

`CC(=O)N1CCN(c2ccc(O)cc2)CC1` [Compound 3, 1-[4-(4-hydroxyphenyl)piperazin-1-yl]ethan-1-one]: the “H2O2-induced ROS production” value in [4] was “decreased the production of ROS induced by hydrogen peroxide in a dose-dependent manner”. The values for the half-maximal inhibitory concentration (IC50) in data set [1] and in data set [3] were 5.3 ± 0.9 µM and 31.8 ± 3.37 µM, respectively. The compound further came in with a viability at 24 h, 50 µM in data set [6] (50 μM) of 75%. Besides, the half-maximal effective concentration (EC50) in [2] is 14 ± 0.9 µM.

`CCC(=O)N1CCN(c2ccc(O)cc2)CC1` [Compound 4, 1-[4-(4-hydroxyphenyl)piperazin-1-yl]propan-1-one]: the figures for the IC50 in data set [1] and in data set [3] were 24.1 ± 3.3 µM and 8.74 ± 0.36 µM, respectively. Moreover, the EC50 in [2] was 10.8 ± 0.3 µM.

Turning to `CC(=O)NCC(=O)N1CCN(c2ccc(O)cc2)CC1` [Compound 5, N-[2-[4-(4-hydroxyphenyl)piperazin-1-yl]-2-oxoethyl]acetamide], the “RM (relative lipophilicity)” value in [5] was −0.65. Besides, the IC50 in [1] was determined as 27.2 ± 6.2 µM; in [3] it was 4 ± 0.25 µM. For the same compound, the concentration for a half-maximal effect (EC50) in data set [2] worked out at 10.4 ± 0.1 µM.

`COc1ccccc1C(=O)N1CCN(c2ccc(O)cc2)CC1` [MehT-3, [4-(4-hydroxyphenyl)piperazin-1-yl](2-methoxyphenyl)methanone]: the “RM (relative lipophilicity)” value in [5] is −0.17. In addition, the “Mode of inhibition of AbTYR (kinetic analyses)” value in data set [7] is “competitive inhibitor”. For the same compound, in data set [7] (reference compound), the half-inhibitory concentration (IC50) was 3.52 ± 0.25 µM. Further, the “Mode of inhibition of hTYR (kinetic analyses)” value in data set [8] was “competitive inhibitor”.

Consider `Cc1c(C)c2c(c(C)c1O)CCC(C)(C(=O)O)O2` (centres unmarked) [Trolox, 6-hydroxy-2,5,7,8-tetramethylchromane-2-carboxylic acid], for which the concentration for a half-maximal effect (EC50) in data set [9] was 13 ± 1.1 µM.
